Converted amounts (≈) assume the structure as drawn.
How the values were obtained:
[1] = Drug substance stability of packaged polymorph under accelerated / long term storage conditions; details: for degradation of packaged drug substance: double LDPE bag, heat sealed foil bag, HDPE container
Procedure: Form 2 of 2-(5-bromo-4-(4-cyclopropylnaphthalen-1-yl)-4H-1,2,4-triazol-3-ylthio)acetate was tested under various conditions to determine drug substance stability. […] Packaging was in a double low density polyethylene plastic bags inside a HDPE container.

[2] = Solid held in equilibrium with its saturated acetone solution at 60° C.; format: physicochemical; details: 60° C. for 6 days
[3] = Solubility in acetate buffer (25 mM, pH 5), assayed by HPLC; format: physicochemical; details: acetate buffer 25 mM pH 5, 25° C.; for solubility at 1 day: acetate buffer, 25 °C, pH 5, aqueous buffer, thermodynamic from solid
Procedure: (§1) Form 1 (˜25 mg) and acetate buffer (25 mM, pH 5, 4 mL), prepared with and without sodium chloride (ionic strength adjusted to =0.1M), were placed in a glass vial which was sealed and placed on a laboratory rotator in a 25° C. incubator. After 1, 5, and 7 days the samples were filtered and assayed by HPLC.
as §1, with “Form 2” for “Form 1”

[4] = Gravimetric vapor sorption (GVS) study; format: physicochemical
Excerpt: FIG. 12 illustrates a GVS study of form 1 and form 2. […] This property of decreased hygroscopicity greatly aids in the preparation of solid pharmaceutical dosage forms.

| degradation of packaged drug substance ([1]; 6 months, accelerated conditions 40° C.-75% RH) | degradation of packaged drug substance ([1]; 12 months, long term conditions 25° C.-60% RH) | outcome of equilibration with saturated acetone solution [2] | solubility at 1 day ([3]; Form 1, NaCl (I = 0.1), Day 1) | adsorbed at high humidity (GVS) [4] | solubility ([3]; Form 2, NaCl (I = 0.1), Day5, sample pH 4.83) | solubility ([3]; Form 2, NaCl (I = 0.1), Day 7, sample pH 4.85) | solubility ([3]; Form 2, No NaCl, Day 1, sample pH 4.91) | solubility ([3]; Form 2, No NaCl, Day5, sample pH 4.73) | solubility ([3]; Form 2, No NaCl, Day 7, sample pH 4.79) | solubility at 1 day ([3]; Form 2, NaCl (I = 0.1), Day 1) | SMILES | stability in comparison to the amorphous solid state form of the carboxylic acid [1] |
| --- | --- | --- | --- | --- | --- | --- | --- | --- | --- | --- | --- | --- |
| No degradation | no degradation | – | – | – | – | – | – | – | – | – | O=C([O-])CSc1nnc(Br)n1-c1ccc(C2CC2)c2ccccc12.[Na+] [Form A, sodium 2-(5-bromo-4-(4-cyclopropylnaphthalen-1-yl)-4H-1,2,4-triazol-3-ylthio)acetate] | improvement over the solid state amorphous free acid |
| – | – | decomposition | 300 µg/mL (≈ 741 µM) | < 0.2 % w/w | – | – | – | – | – | – | O=C(O)CSc1nnc(Br)n1-c1ccc(C2CC2)c2ccccc12 [Form 1, 2-(5-bromo-4-(4-cyclopropylnaphthalen-1-yl)-4H-1,2,4-triazol-3-ylthio)acetic acid] | – |
| – | – | – | – | < 0.1 % w/w | 0.2441 (pH 4.83) mg/mL | 0.2157 (pH 4.85) mg/mL | 0.1867 (pH 4.91) mg/mL | 0.1957 (pH 4.73) mg/mL | 0.1337 (pH 4.79) mg/mL | 219 µg/mL (≈ 542 µM) | O=C(O)CSc1nnc(Br)n1-c1ccc(C2CC2)c2ccccc12 [Form 2, 2-(5-bromo-4-(4-cyclopropylnaphthalen-1-yl)-4H-1,2,4-triazol-3-ylthio)acetic acid] | – |

— patent publication US9296709B2, “Manufacture of 2-(5-bromo-4-(4-cyclopropylnaphthalen-1-yl)-4H-1,2,4-triazol-3-ylthio)acetic acid” (ARDEA BIOSCIENCES, INC., priority 2012, dated 2016)
